Measurements published in patent US12060588B2, “Methods of editing DNA methylation” (Whitehead Institute for Biomedical Research, priority 2016, dated 2024).

System: Snrpn promoter (IG-DMR GFP/Pat reporter)
Test: Ex vivo activation of the silenced IG-DMR-Snrpn-GFP reporter in mouse tail fibroblasts
Type: cell-based
Description: FIGS. 7A-7H depict targeted ex vivo and in vivo DNA methylation editing by dCas9-Tet1 to activate a silenced GFP reporter. FIG. 7A provides a schematic diagram illustrating the experimental procedure for the ex vivo activation of a silenced GFP reporter in mouse fibroblast cells. Mouse tail fibroblast cells were derived from a genetically modified mouse line carrying a paternal IG-DMR-Snrpn-GFP allele (IG-DMRGFP/Pat) in the Dlk1-Dio3 locus. The IG-DMR-Snrpn promoter on the paternal allele is hypermethylated so that the GFP reporter is constitutively silenced. The cultured fibroblast cells were infected with lentiviral vectors expressing dCas9-Tet1 and gRNAs to demethylate the Snrpn promoter and activate the GFP reporter. Cells are subject to imaging and FACS analysis. […] Stained in red for Cherry, green for GFP and DAPI for nuclei. Scale bar: 100 um. Note that in order to turn on the Snrpn-GFP methylation reporter, both dCas9-Tet1 and target gRNA lentiviral vectors have to be transduced into the same cells. […] Brains were sliced and analyzed by immunohistochemical approaches. […] FIGS. 7G-7H provide quantification of the percentage of IG-DMR^GFP/Pat cells with GFP activation in Cherry (gRNAs) positive cells in the in vivo lentiviral delivery experiment in the brain (FIG. 7G) and in the skin epidemis (FIG. 7H). […]

| Substance | GFP reporter activation in Cherry (gRNA) positive fibroblasts (with Snrpn target gRNAs, lentiviral transduction) | GFP reporter activation in Cherry (gRNA) positive fibroblasts (with a sc gRNA) |
| --- | --- | --- |
| dC-dT: dCas9 fused to an inactive mutant form of Tet1 (H1672Y, D1674A), SEQ ID NO: 160 | cannot turn on GFP reporter expression | – |
| dCas9-Tet1: catalytically inactive Cas9 (dCas9) fused through NLS to the Tet1 catalytic domain, SEQ ID NO: 159; lentivirally expressed with gRNAs | – | cannot turn on GFP reporter expression |
